Test results taken from US20090280511A1, “Methods for selecting candidate peptides presented on the surface of cancer cells following their binding to MHC class I molecules” (priority 2008, published 2009).
Residues, ends and D or L forms follow the SMILES beside them. *: point of attachment. Cbz = O=C(OCc1ccccc1)*

Tests used:
Format in all cases: cell-based, mouse
DC2.4 cells [1] = experiment: H-2Kb/pOV8 presentation after introducing proteins from outside into the cytosol with Chariot
Description: The presentation of H-2Kb/pOV8 was examined when pOV8-YFP and YFP-pOV8 were introduced directly from the outside into the cytosol of DC2.4 cells.
Chariot was used as a reagent for forcibly making the cell membrane permeable to proteins in solution. It was again examined whether the presentation of pOV8 to H-2Kb was improved by fusion of pOV8 to the N-terminus of YFP as compared to fusion to the C-terminus. The cells were heated in the presence of any of YFP, pOV8-YFP, and YFP-pOV8, and the cell membrane permeabilizing agent Chariot. After washing the cells, a whole cell extract was prepared. After SDS-PAGE, Western blotting was performed using anti-YFP antibody (inset of FIG. 5). In addition, the expression of H-2Kb/pOV8 in these cells was measured using the 25D1.16 antibody.

DC2.4 cells [2] = experiment: Effect of inhibitors on H-2Kb/pOV8 expression after acid wash
Protocol: The DC2.4 cells were washed with acid 12 hours after transfection as in FIG. 3. The inhibitors were added at 0 hours (time 0). After 6 hours, the cells were recovered and examined.
The effect of various inhibitors on H-2Kb/pOV8 expression was examined. […] DC2.4 cells were transfected with DNA and after two hours, excess DNA was removed and the cells were further incubated for 12 hours. The cells were washed with acid and the indicated inhibitor was added at the same time. After six hours, H-2Kb/pOV8 expression was measured using 25D1.16 antibody.
Other inhibitors were examined as in the experiment described in [8] above.
The same system in [8] above was used to examine the effect of non-natural amino acids such as canavanine or azetidine. It is known that proteins incorporating non-natural amino acids are easily degraded since they fail to fold properly.

DC2.4 cells [3] = experiment: H-2Kb/pOV8 expression with or without IFNγ treatment, 25D1.16 antibody; details: DC2.4 cells expressing pOV8-YFP or YFP-pOV8
Description: First, DC2.4 cells expressing pOV8-YFP and YFP-pOV8 were respectively treated with IFNγ and analyzed for H-2Kb/pOV8 expression using the 25D1.16 antibody.
Cellular IFNγ treatment causes an increase in class I antigen expression, and the enormous immunological significance of this phenomenon has been elucidated. The principle of N-terminal epitope dominance should play a significant role in direct antigen presentation in the living body, since it brings about an expression difference similar to that which results from the presence or absence of IFNγ treatment.
In the table, the term “whole” means the sum of H-2Kb/pOV8 expression for all cells expressing YFP. The term “at 10^2 fluorescent units” means H-2Kb/pOV8 expression for cells expressing 10^2 fluorescent units of YFP.

Row | Compound | effect of inhibitor on H-2Kb/pOV8 expression (presentation) (DC2.4 cells [2]) | other results
1 | CC(C)C[C@@H](C=O)NC(=O)[C@H](CC(C)C)NC(=O)[C@H](CC(C)C)NC(=O)OCc1ccccc1 [MG132] (Cbz-Leu-Leu-Leu-aldehyde) |  | effect on antigen presentation of OVA administered with Chariot (DC2.4 cells [1]; OVA plus Chariot): reduced antigen presentation
2 | COc1ccc(C[C@H]2NC[C@H](O)[C@H]2OC(C)=O)cc1 [anisomycin] | inhibited | 
3 | C1CNC1 [azetidine] | no effect on antigen presentation | 
4 | N=C(N)NOCC[C@H](N)C(=O)O [canavanine] | no variation | 
5 | CCN(CC)CCCC(C)Nc1ccnc2cc(Cl)ccc12 (centres unmarked) [chloroquine] | not inhibited | 
6 | IFNγ: cytokine used to treat cells; known to increase MHC class I antigen expression |  | effect of IFNγ treatment on H-2Kb/pOV8 expression (DC2.4 cells [3]): increased
7 | OVA: full-length OVA antigen protein containing the pOV8 epitope |  | presentation of H-2Kb/pOV8 (DC2.4 cells [1]; protein administered to cells in the presence of Chariot): slight presentation of H-2Kb/pOV8 was observed
8 | a-amanitin | Recovery in H-2Kb/pOV8 expression was not observed | 
